# Measurements as given in EP0684822B1, “CARBOCYCLIC DEOXYGUANOSINE ANALOGS FOR THE TREATMENT OF VIRAL INFECTIONS” (SOUTHERN RESEARCH INSTITUTE, priority 1993, dated 1994).
# Key:
# [1] = molecular target: T1, HSV-1 TK (Human herpesvirus 1, UniProt P0DTH5); assay: Competitive inhibition of [3H]-thymidine phosphorylation by partially purified HSV-1 TK; format: biochemical
# T1 construct: HSV thymidine kinase (HSV TK) was isolated from HELA (BU25) cells infected with the SW148 strain of HSV-1; made in house; host or cells: HeLa (BU25) thymidine-kinase-deficient cells infected with HSV-1 strain S148/SW148
# Method: The Ki's were determined from a plot of the slope of each line versus the concentration of the competitor (D-, L, or D,L-2'CdG) and are summarized below: TABLE 2
# [2] = test system: human CMV; assay: Intravitreal human CMV infection in rabbits; format: in vivo, New Zealand white rabbits; conditions: intravitreal injection, 100 µg in 100 µl, 48-hour intervals beginning at day 4
# From the text: The symptoms included vitritis, iritis, retinal pathology (micro hemorrhages and focal necrosis of the retinal surface), corneal stromal haze and neovascularization, and corneal endothelial pigmented precipitates. […] The intravitreal route offers some significant advantages for intraocular infections including: 1) delivery of maximal concentrations of drug to the desired site of action; 2) increased potential for sustained release (i.e., longer half-life, T1/2) of the drug; and 3) reduced potential for systemic toxicity.
# [3] = test system: human CMV; assay: In vitro activity against human CMV in human foreskin fibroblast cells; format: cell-based
# Method: The in vitro activity of D-2'-CdG was also compared with the current investigational drug of choice for human CMV, DHPG. These experiments were carried out in human foreskin fibroblast cells.
# [4] = test system: CMV; assay: CMV yield reduction in MRC5 cell monolayer cultures (plaque assay); format: cell-based, human CMV; conditions: for CMV Yield PFU/mL: virus controls 1.1 x 10^5; for CMV Yield log10 PFU/mL: virus controls 5.1
# Method: (§1) The D- and L-enantiomers of 2'-CdG were prepared from racemic C-2,6-DAPR by an enzymatic method as described above Secrist et al. (J. Med. Chem. 30:746, 1987). The effectiveness of racemic-2'-CdG and of D-2'-CdG in reducing CMV yields in MRC5 cell monolayer cultures was determined by a plaque assay with the results set forth in tables 6 and 7.
# [5] = test system: MRC5 cell monolayer cultures; assay: Drug cytotoxicity (gross morphology) in MRC5 cell monolayer cultures; format: cell-based
# Method: as §1
# [6] = test system: MRC5 cell monolayer cultures; assay: as above; format: cell-based; remark: listed apart in the source
# [7] = molecular target: T2, HSV-TK extract (Human herpesvirus 1, UniProt P0DTH5); assay: Phosphorylated products formed by HSV-TK extract, SAX HPLC; format: biochemical, HSV-1; conditions: for DPM di / DPM mono / DPM nucleoside / DPM total / DPM tri: 10 µM [3H] compound, 2 hours; for major phosphorylated derivative: 50 µM, 60 minutes at 37°C, Fig. 3
# T2 construct: HSV thymidine kinase (HSV TK) was isolated from HELA (BU25) cells infected with the SW148 strain of HSV-1; made in house; host or cells: HeLa (BU25) thymidine-kinase-deficient cells infected with HSV-1 strain S148/SW148
# Method: HSV thymidine kinase activity was measured in 200 µl volumes containing HSV-TK extract obtained as described previously (Belzarini et al., supra), 5.0 mM ATP, 5 mM MgCl2, 9 mM potassium fluoride, 11.2 µg phosphoenol pyruvate, 5 µg of pyruvate kinase, 10 mM β-mercaptoethanol and either 50 µM [3H]-D-, L, or no drug for 60 minutes at 37°C. The reaction was stopped with perchloric acid (PCA), neutralized with potassium bicarbonate, and the reaction products were analyzed by SAX HPLC. The UV absorption spectra of selected peaks were determined with a rapid spectral detector (LKB, Gaithersburg, MD). […] The amount of monophosphate derived from L-2'CdG was about the same as the amount of triphosphate derived from D-2'CdG, and confirmed the results of the disk assay.
# HSV extracts were also incubated with 10 µM of either [^3H]-D- or L-2'Cdg, as described above, to measure the metabolism of these entantiomers. After 2 hours the reaction was stopped with perchloric acid (PCA), neutralized with potassium bicarbonate, and the acid-soluble metabolites were separated using SAX HPLC as described above. The results are summarized below.: TABLE 3
# T2 sequence (P0DTH5 whole entry): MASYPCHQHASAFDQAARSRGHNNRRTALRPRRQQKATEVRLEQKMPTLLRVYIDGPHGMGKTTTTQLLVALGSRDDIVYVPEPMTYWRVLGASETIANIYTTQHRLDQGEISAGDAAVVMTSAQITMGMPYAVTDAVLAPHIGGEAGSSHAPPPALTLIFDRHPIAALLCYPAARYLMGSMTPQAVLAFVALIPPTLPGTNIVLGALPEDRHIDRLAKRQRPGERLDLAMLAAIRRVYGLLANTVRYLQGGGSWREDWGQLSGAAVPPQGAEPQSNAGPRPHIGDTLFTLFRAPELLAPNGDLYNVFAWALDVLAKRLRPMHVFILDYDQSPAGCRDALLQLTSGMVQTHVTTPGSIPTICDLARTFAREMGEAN
# T1 sequence (P0DTH5 whole entry): as above
smiles,measurement,setting,value
"Nc1nc2c(ncn2[C@@H]2C[C@H](CO)[C@@H](O)C2)c(=O)[nH]1 [D-2'-CdG, [1R,3S,4R-(1α,3β,4α)]-D-2-Amino-1,9-dihydro-9-[3-hydroxy-4-(hydroxymethyl)cyclopentyl]-6H-purin-6-one]",Ki,[1],2.1 µM
same,clinical effect compared to placebo,[2],effective in reducing the development of retinal pathology and in reducing the severity of the vitritis and iritis
same,clinical outcome compared to ganciclovir (DHPG) under the same conditions,[2],clinically better than treatment with ganciclovir
same,antiviral potency relative to DHPG,[3],more than 3 times
same,EC50,"[3]; Human betaherpesvirus 5, read-out: ED50 value (median dose at which 50% antiviral efficacy is observed)",0.06 µg/mL
same,CMV Yield PFU/mL,[4]; 0.1 µM,3.8 x 10^4 PFU/mL
same,CMV Yield log10 PFU/mL,[4]; 0.1 µM,4.6 log10 PFU/mL
same,CMV Yield PFU/mL,[4]; 0.32 µM,1.4 x 10^4 PFU/mL
same,CMV Yield log10 PFU/mL,[4]; 0.32 µM,4.1 log10 PFU/mL
same,CMV Yield PFU/mL,[4]; 1.0 µM,5.4 x 10^3 PFU/mL
same,CMV Yield log10 PFU/mL,[4]; 1.0 µM,3.7 log10 PFU/mL
same,CMV Yield PFU/mL,[4]; 3.2 µM,8.4 x 10^2 PFU/mL
same,CMV Yield log10 PFU/mL,[4]; 3.2 µM,2.9 log10 PFU/mL
same,CMV Yield PFU/mL,[4]; 10 µM,2 x 10^1 PFU/mL
same,CMV Yield log10 PFU/mL,[4]; 10 µM,1.3 log10 PFU/mL
same,CMV Yield PFU/mL,[4]; 32 µM,0 PFU/mL
same,CMV Yield PFU/mL,[4]; 100 µM,0 PFU/mL
same,inhibition at 0.1 µM,"[4]; Human betaherpesvirus 5, MRC5, 0.1 µM, read-out: Reduction (%) of CPE by D-2'CdG at Time of Virus Harvest",0%
same,inhibition at 0.32 µM,"[4]; Human betaherpesvirus 5, MRC5, 0.32 µM, read-out: Reduction (%) of CPE by D-2'CdG at Time of Virus Harvest",0%
same,inhibition at 1 µM,"[4]; Human betaherpesvirus 5, MRC5, 1.0 µM, read-out: Reduction (%) of CPE by D-2'CdG at Time of Virus Harvest",10%
same,inhibition at 3.2 µM,"[4]; Human betaherpesvirus 5, MRC5, 3.2 µM, read-out: Reduction (%) of CPE by D-2'CdG at Time of Virus Harvest",10%
same,inhibition at 10 µM,"[4]; Human betaherpesvirus 5, MRC5, 10 µM, read-out: Reduction (%) of CPE by D-2'CdG at Time of Virus Harvest",25%
same,inhibition at 32 µM,"[4]; Human betaherpesvirus 5, MRC5, 32 µM, read-out: Reduction (%) of CPE by D-2'CdG at Time of Virus Harvest",50%
same,inhibition at 100 µM,"[4]; Human betaherpesvirus 5, MRC5, 100 µM, read-out: Reduction (%) of CPE by D-2'CdG at Time of Virus Harvest",50%
same,Drug Cytotoxicity (Gross Morphology),[5]; 0.32 µM,0
same,Drug Cytotoxicity (Gross Morphology),[5]; 3.2 µM,0
same,Drug Cytotoxicity (Gross Morphology),[5]; 32 µM,v. sl. toxicity
same,Drug Cytotoxicity (Gross Morphology),[5]; 320 µM,toxic
same,Drug Cytotoxicity (Gross Morphology),[6]; 0.1 µM,0
same,Drug Cytotoxicity (Gross Morphology),[6]; 1.0 µM,0
same,Drug Cytotoxicity (Gross Morphology),[6]; 10 µM,0
same,Drug Cytotoxicity (Gross Morphology),[6]; 100 µM,slight toxicity
same,DPM di,[7],2427 DPM
same,DPM mono,[7],2138 DPM
same,DPM nucleoside,[7],38555 DPM
same,DPM total,[7],128000 DPM
same,DPM tri,[7],85073 DPM
same,major phosphorylated derivative,[7],the triphosphate
"Nc1nc2c(ncn2[C@H]2C[C@@H](CO)[C@H](O)C2)c(=O)[nH]1 [L-2'-CdG, [1S,3R,4S-(1α,3β,4α)]-L-2-Amino-1,9-dihydro-9-[3-hydroxy-4-(hydroxymethyl)cyclopentyl]-6H-purin-6-one]",Ki,[1],3.4 µM
same,DPM di,[7],2050 DPM
same,DPM mono,[7],115000 DPM
same,DPM nucleoside,[7],40944 DPM
same,DPM total,[7],158000 DPM
same,DPM tri,[7],410 DPM
same,major phosphorylated derivative,[7],primarily to the monophosphate form
